The test system of data set [1] is Pectobacterium carotovorum SCC1. Put plainly: Inhibition of soft rot lesion in tobacco leaf. The format is in vivo.
For data set [2] the test system is unchanged. As to the kind of experiment: Inhibition of soft rot lesion in cucumber leaf. The format is in vivo.
Data set [3] deals with Colletotrichum orbiculare. The format is in vivo. The conditions noted are these: cucumber; for Number of anthractic lesions in first leaf: control 12.5; for Number of anthractic lesions in second leaf: control 96.8.
The test system of data set [4] is Pectobacterium carotovorum SCC1. Put plainly: Inhibition of naturally occurring soft rot in Chinese cabbage hydrocultured in summer. The conditions noted are these: for Appearance of soft rot: 20 ppm, sprayed, examined 1 week later, control 58. The format is in vivo. From the text: After spraying test compounds to hydrocultured Chinese cabbage, naturally occurring soft rot was examined 1 week later.

In another data set the test system is cucumber leaf. Put plainly: Promotion of growth of cucumber leaf. The conditions noted are these: Cucumis sativus, read-out: Width of leaf.
The next data set deals with Colletotrichum acutatum. Put plainly: Inhibition of anthracnose in red pepper fruit after soil drench. The conditions noted are these: control 50.
Data set [5] deals with PR-1α promoter fused to the GUS gene. Put plainly: PR-1α-GUS activity in tobacco leaf. The format is in vivo. The conditions noted are these: control 54. As to the method:
After adding 960 μL of stop buffer (0.2M sodium carbonate) to make 1 mL, fluorescence was measured using a TKO 100 fluorometer (Hoefer Scientific Instruments, USA).

Data set [6] has as its system anthracnose-causing Colletotrichum orbiculare. The format is in vivo. The conditions noted are these: tobacco leaf, control 240.3.
For a further data set, the system named is PR-1 gene. The conditions noted are these: background art; cited from earlier work.
In a further data set the test system is PDF1.2 gene. The conditions noted are these: background art; cited from earlier work.

Read-outs that look alike come from different tables or passages of the source.

These results are taken from US20170204102A1, “AGRICULTURAL AGENT CONTAINING 2,5-DIKETOPIPERAZINE DERIVATIVE AS ACTIVE INGREDIENT” (NAPRO BIOTEC INC., priority 2010, published 2017).

Consider `O=C1NCC(=O)N2CCCC12` (stereo not shown) [Compound No. 29, hexahydropyrrolo[1,2-a]pyrazin-1,4-dione], for which the Area of lesion in data set [1] (1 ppm, Table 4, control 100) is given as 27.5%; in data set [1] (10 ppm, Table 4, control 100) it was 0%; in data set [1] (100 ppm, Table 4, control 100) it was 0%; in data set [2] (1 ppm, Table 7, control 100), 43%; in data set [2] (10 ppm, Table 7, control 100) it was 63%; in data set [2] (100 ppm, Table 7, control 100), 90%. The “Number of anthractic lesions in first leaf” value (from here on “Number … in first leaf”) in data set [3] (0.1 ppm) is reported as 0.8; in data set [3] (1 ppm) it was 5.0; in data set [3] (10 ppm), 10.0; in data set [3] (100 ppm), 5.0. In addition, the “Number of anthractic lesions in second leaf” value (shortened to “Number … in second leaf”) amounted to 51.3 in data set [3] (0.1 ppm), 35.8 in [3] (1 ppm), 55.5 in data set [3] (10 ppm) and 87.0 in [3] (100 ppm). Further, the “Appearance of soft rot” value in [4] came out at 14%. The “Inhibitory effect against soft rot in Chinese cabbage (in words)” value in data set [4] (Table 11, FIG. 10) is “very superior inhibitory effect”. For the same molecule, in the data set on cucumber leaf, the response vs control in vivo at 1 ppm was found to be 100%. Further, the response vs control in vivo at 10 ppm with cucumber leaf turned out to be 120%. For the same molecule, the response vs control in vivo at 100 ppm in the data set with cucumber leaf came to 115%. For the same molecule, the Appearance of anthracnose in the data set with Colletotrichum acutatum (1 ppm), with Colletotrichum acutatum (10 ppm) and in the data set with Colletotrichum acutatum (100 ppm) was 0% in each case.
As to `CC(C)C1NC(=O)C2CCCN2C1=O` (stereo not shown) [Compound No. 26, 3-isopropylhexahydropyrrolo[1,2-a]pyrazin-1,4-dione], the PR-1α-GUS activity in data set [5] (0.1 ppm) was 34,967 nM MU/10 mg/h. In data set [5] (1 ppm), the PR-1α-GUS activity is listed as 27,497 nM MU/10 mg/h. Further, the “Number of anthractic lesions” value in data set [6] (0.1 ppm) worked out at 67.1. Moreover, the “Number of anthractic lesions” value in data set [6] (1 ppm) was 63.3. In the data set on cucumber leaf, the response vs control in vivo at 1 ppm is 112%, the response vs control in vivo at 10 ppm was 128% and the response vs control in vivo at 100 ppm came out at 129%.
The term melting point denotes the temperature of the solid-liquid transition. `CC(C)CC1NC(=O)CNC1=O` (stereo not shown) [Compound No. 2, 3-(2-methylpropyl)-2,5-diketopiperazine] had a melting point of 241 to 244 °C. The molecule also registered an Area of lesion in [1] (1 ppm, Table 3, control 87.5) of 32.5%. For the same molecule, the Area of lesion in [1] (10 ppm, Table 3, control 87.5) is given as 40%. The molecule further returned an Area of lesion in data set [1] (100 ppm, Table 3, control 87.5) of 60%. In data set [2] (1 ppm, Table 6, control 100), this molecule yielded an Area of lesion of 92.5%. In data set [2] (10 ppm, Table 6, control 100), this molecule gave an Area of lesion of 82.5%. The Area of lesion in data set [2] (100 ppm, Table 6, control 100) was 50%.
As for `CSC(=O)c1cccc2nnsc12` [BTH, benzo-1,2,3-thiadiazole-7-carbothioic acid S-methyl ester, reference compound], the PR-1α-GUS activity in data set [5] (1 ppm) is 21,015 nM MU/10 mg/h. In addition, in [6] (1 ppm), the “Number of anthractic lesions” value turned out to be 58.3. For the same molecule, the Area of lesion in data set [1] (1 ppm, Table 3, control 87.5) is 52.5%; in [1] (1 ppm, Table 4, control 100), 95%; in data set [1] (1 ppm, Table 5, control 73.75) it was 50%; in data set [1] (10 ppm, Table 3, control 87.5), 52.5%; in [1] (10 ppm, Table 4, control 100) it was 95%; in [1] (10 ppm, Table 5, control 73.75) it was 50%. Further, the Area of lesion in data set [1] (100 ppm, Table 3, control 87.5) is recorded as 52.5%; in [1] (100 ppm, Table 4, control 100), 95%; in data set [1] (100 ppm, Table 5, control 73.75), 50%; in data set [2] (1 ppm, Table 6, control 100), 100%; in data set [2] (1 ppm, Table 7, control 100) it was 90%; in data set [2] (1 ppm, Table 8, control 100), 100%. Further, the Area of lesion in data set [2] (10 ppm, Table 6, control 100) was 100%; in data set [2] (10 ppm, Table 7, control 100), 90%; in data set [2] (10 ppm, Table 8, control 100) it was 100%; in [2] (100 ppm, Table 6, control 100), 100%; in data set [2] (100 ppm, Table 7, control 100), 90%; in data set [2] (100 ppm, Table 8, control 100), 100%. Further, the “Number … in first leaf” value in data set [3] (0.1 ppm), in data set [3] (1 ppm), in data set [3] (10 ppm) and in data set [3] (100 ppm) was 0.8 each time. Also, the “Number … in second leaf” value in [3] (0.1 ppm), in data set [3] (1 ppm), in data set [3] (10 ppm) and in data set [3] (100 ppm) was 100.3 each time. For the same molecule, the “Induction of expression of the PR-1 gene” value in the data set with PR-1 gene was “induces the expression of the PR-1 gene”. The “Induction of expression of the PDF1.2 gene” value in the data set on PDF1.2 gene is “does not induce the expression”. Besides, the response vs control in vivo at 1 ppm in the data set on cucumber leaf worked out at 93.8%. In the data set with cucumber leaf, the response vs control in vivo at 10 ppm stood at 90.5%. Besides, the response vs control in vivo at 100 ppm in the data set on cucumber leaf was 92%. Besides, the results for the Appearance of anthracnose in the data set on Colletotrichum acutatum (1 ppm), with Colletotrichum acutatum (10 ppm) and with Colletotrichum acutatum (100 ppm) were 25%, 0% and 0%, respectively.
`CCC(C)C1NC(=O)C2CCCN2C1=O` (stereo not shown) [Compound No. 28, 3-(1-methylpropyl)hexahydropyrrolo[1,2-a]pyrazin-1,4-dione]: the melting point fell in the range of 104 to 105 °C. This molecule registered an Area of lesion in [1] (1 ppm, Table 4, control 100) of 12.5%. In addition, the Area of lesion in [1] (10 ppm, Table 4, control 100) was 82.5%. This molecule came in with an Area of lesion in [1] (100 ppm, Table 4, control 100) of 2.5%. In addition, in [2] (1 ppm, Table 7, control 100), the Area of lesion is on record as 55%. The Area of lesion in [2] (10 ppm, Table 7, control 100) was determined as 83%. Besides, the Area of lesion in data set [2] (100 ppm, Table 7, control 100) worked out at 65%. Further, in [3] (0.1 ppm), the “Number … in first leaf” value is given as 5.3 and the “Number … in second leaf” value came to 55.3. Also, in data set [3] (1 ppm), the “Number … in first leaf” value came to 2.3 and the “Number … in second leaf” value was determined as 62.3. Besides, in data set [3] (10 ppm), the “Number … in first leaf” value is given as 12.3 and the “Number … in second leaf” value is listed as 87.3. For the same molecule, in [3] (100 ppm), the “Number … in first leaf” value was 10.8 and the “Number … in second leaf” value was 77.3. In data set [4], the “Appearance of soft rot” value was determined as 49%. In the data set on cucumber leaf, the response vs control in vivo at 1 ppm was determined as 100%, the response vs control in vivo at 10 ppm was determined as 120% and the response vs control in vivo at 100 ppm is 129%. This molecule showed an Appearance of anthracnose in the data set with Colletotrichum acutatum (1 ppm) of 0%. The same molecule had an Appearance of anthracnose in the data set on Colletotrichum acutatum (10 ppm) of 25%. Moreover, in the data set with Colletotrichum acutatum (100 ppm), the Appearance of anthracnose is recorded as 0%.
As to `CC1NC(=O)C2CCCN2C1=O` (stereo not shown) [Compound No. 25, 3-methylhexahydropyrrolo[1,2-a]pyrazin-1,4-dione], the Area of lesion is on record as 15% in [1] (1 ppm, Table 4, control 100); 12.5% in data set [1] (10 ppm, Table 4, control 100); 0% in [1] (100 ppm, Table 4, control 100); 78% in [2] (1 ppm, Table 7, control 100); 73% in [2] (10 ppm, Table 7, control 100); 85% in [2] (100 ppm, Table 7, control 100). Further, the “Number … in first leaf” value in [3] (0.1 ppm) worked out at 3.8; in data set [3] (1 ppm), 1.3; in data set [3] (10 ppm) it was 1.0; in [3] (100 ppm), 2.0. The “Number … in second leaf” value is 37.0 in [3] (0.1 ppm), 46.0 in [3] (1 ppm), 22.5 in data set [3] (10 ppm) and 27.8 in data set [3] (100 ppm). Besides, in data set [4], the “Appearance of soft rot” value came out at 19%. Besides, in the data set on cucumber leaf, the response vs control in vivo at 1 ppm came to 121%. For the same molecule, the response vs control in vivo at 10 ppm in the data set with cucumber leaf was found to be 119%. Besides, the response vs control in vivo at 100 ppm in the data set with cucumber leaf amounted to 123%. The figures for the Appearance of anthracnose with Colletotrichum acutatum (1 ppm), with Colletotrichum acutatum (10 ppm) and in the data set on Colletotrichum acutatum (100 ppm) were 0%, 25% and 25%, respectively.
